Assay results reported in patent US10125167B2, “Compositions and methods for treating MRSA infections and for sensitizing MRSA to beta-lactam antibiotics” (Arizona Board of Regents on behalf of Arizona State …, priority 2015, dated 2018).
≈ marks a conversion by molar mass, not a printed value. Like-named read-outs stand apart in the source and are kept apart here.

Tests used:
USA100 = assay: Synergy of ASU014 with antibiotics (MIC/FIC); format: cell-based, S. aureus; conditions: for Antibiotic MIC, Antibiotic Only: USA100; for Antibiotic MIC +¼ MIC (ASU014) / FIC +¼ MIC (ASU014): USA100, with ¼ MIC ASU014; for Antibiotic MIC +½ MIC (ASU014) / FIC +½ MIC (ASU014): USA100, with ½ MIC ASU014; for Antibiotic MIC +⅛ MIC (ASU014) / FIC +⅛ MIC (ASU014): USA100, with ⅛ MIC ASU014
[1] = system: MRSA (USA500) BEI: HFH-30522; assay: MIC against a panel of Gram-positive and Gram-negative bacteria; format: cell-based, Staphylococcus aureus
[2] = system: MRSA (USA100) BEI: HFH-30123; assay: as above; format: cell-based; conditions: Staphylococcus aureus
P. aeruginosa PAO1 = assay: as above; format: cell-based; conditions: Pseudomonas aeruginosa
MSSA = assay: as above; format: cell-based, S. aureus
[3] = system: MRSA (USA400) BEI: HFH-30364; assay: as above; format: cell-based, Staphylococcus aureus
[4] = system: MRSA (USA300) BEI: FOO3/HI168; assay: as above; format: cell-based, Staphylococcus aureus
MSSA UAB637 = assay: Synergy of ASU014 with antibiotics (MIC/FIC); format: cell-based, S. aureus
MRSA (USA300-LAC) = assay: MIC against a panel of Gram-positive and Gram-negative bacteria; format: cell-based, Staphylococcus aureus
USA300-LAC = assay: Synergy of ASU014 with antibiotics (MIC/FIC); format: cell-based, S. aureus
USA300-HI168 = assay: Synergy of ASU014 with antibiotics (MIC/FIC); format: cell-based, S. aureus; conditions: for Antibiotic MIC, Antibiotic Only: USA300-HI168; for Antibiotic MIC +¼ MIC (ASU014) / FIC +¼ MIC (ASU014): USA300-HI168, with ¼ MIC ASU014; for Antibiotic MIC +½ MIC (ASU014) / FIC +½ MIC (ASU014): USA300-HI168, with ½ MIC ASU014
[5] = Staphylococcus aureus, read-out: MIC
[6] = USA300-HI168, with ⅛ MIC ASU014

Structure (SMILES)	Antibiotic MIC, Antibiotic Only (USA100) [µg/mL]	Antibiotic MIC +¼ MIC (ASU014) (USA100) [µg/mL]	FIC +¼ MIC (ASU014) (USA100)	Antibiotic MIC +½ MIC (ASU014) (USA100) [µg/mL]	FIC +½ MIC (ASU014) (USA100)	Antibiotic MIC +⅛ MIC (ASU014) (USA100) [µg/mL]	FIC +⅛ MIC (ASU014) (USA100)	Antibiotic MIC, Antibiotic Only (USA300-HI168) [µg/mL]	Antibiotic MIC +¼ MIC (ASU014) (USA300-HI168) [µg/mL]	FIC +¼ MIC (ASU014) (USA300-HI168)	Antibiotic MIC +½ MIC (ASU014) (USA300-HI168) [µg/mL]	FIC +½ MIC (ASU014) (USA300-HI168)	Antibiotic MIC +⅛ MIC (ASU014) (USA300-HI168; [6]) [µg/mL]	further results
CC1(C)S[C@@H]2[C@H](NC(=O)[C@H](N)c3ccc(O)cc3)C(=O)N2[C@H]1C(=O)O [Amoxicillin, amoxicillin]	>256	32	0.38	4	0.52	>256	–	–	–	–	–	–	–	MIC (USA100; Staphylococcus aureus, MRSA / USA100, this MRSA strain, antibiotic alone): > 256 µg/mL
O=C(O)c1cn(C2CC2)c2cc(N3CCNCC3)c(F)cc2c1=O [Cipro, Ciprofloxacin]	>32	>32	–	>32	–	>32	–	–	–	–	–	–	–	MIC [1, 5]: > 4 µg/mL; MIC [2]: > 4 µg/mL; MIC (P. aeruginosa PAO1): 0.5 µg/mL (≈ 1.51 µM); MIC (MSSA; [5]): 0.25 µg/mL (≈ 0.754 µM); MIC [3, 5]: 0.5 µg/mL (≈ 1.51 µM); MIC [4, 5]: 0.5 µg/mL (≈ 1.51 µM)
CCOc1ccc2ccccc2c1C(=O)N[C@@H]1C(=O)N2[C@@H]1SC(C)(C)[C@@H]2C(=O)O [Nafcillin, nafcillin]	32	2	0.31	2	0.56	8	0.38	–	–	–	–	–	–	–
Cc1onc(-c2ccccc2)c1C(=O)N[C@@H]1C(=O)N2[C@@H]1SC(C)(C)[C@@H]2C(=O)O [Oxa, oxacillin]	–	8	0.31	4	0.53	64	0.63	2	0.125	0.31	0.063	0.53	0.5	Antibiotic MIC, Antibiotic Only (MSSA UAB637; MSSA UAB637): 0.125 µg/mL; Antibiotic MIC +¼ MIC (ASU014) (MSSA UAB637; MSSA UAB637, with ¼ MIC ASU014): 0.125 µg/mL; Antibiotic MIC +½ MIC (ASU014) (MSSA UAB637; MSSA UAB637, with ½ MIC ASU014): 0.125 µg/mL; Antibiotic MIC +⅛ MIC (ASU014) (MSSA UAB637; MSSA UAB637, with ⅛ MIC ASU014): 0.125 µg/mL; MIC [1]: 8 µg/mL (≈ 19.9 µM); MIC (MRSA (USA300-LAC)): 64 µg/mL (≈ 159 µM); Antibiotic MIC, Antibiotic Only (USA300-LAC): 64 µg/mL; Antibiotic MIC +¼ MIC (ASU014) (USA300-LAC; with ¼ MIC ASU014): 4 µg/mL; FIC +¼ MIC (ASU014) (USA300-LAC; with ¼ MIC ASU014): 0.31; Antibiotic MIC +½ MIC (ASU014) (USA300-LAC; with ½ MIC ASU014): 4 µg/mL; FIC +½ MIC (ASU014) (USA300-LAC; with ½ MIC ASU014): 0.56; Antibiotic MIC +⅛ MIC (ASU014) (USA300-LAC; with ⅛ MIC ASU014): 8 µg/mL; FIC +⅛ MIC (ASU014) (USA300-LAC; with ⅛ MIC ASU014): 0.25; MIC (MSSA): <0.25 µg/mL; FIC +⅛ MIC (ASU014) (USA300-HI168; [6]): 0.38; MIC [3]: 8 µg/mL (≈ 19.9 µM); MIC [4]: 32 µg/mL (≈ 79.7 µM)
[H]/N=C(/N)N[C@H]1[C@H](O)[C@@H](O)[C@H](O[C@@H]2O[C@@H](C)[C@](O)(C=O)[C@H]2O[C@@H]2O[C@@H](CO)[C@H](O)[C@@H](O)[C@@H]2NC)[C@@H](N/C(N)=N\[H])[C@@H]1O [Streptomycin]	–	–	–	–	–	–	–	4	2	0.75	0.5	0.63	4	–
